Results: patent publication US10662218B2, “Analogs of celastrol” (ERX Pharmaceuticals, Inc., priority 2015, dated 2020)
Values after ≈ are worked out from the molar mass of the structure shown. Values joined by “and” are separate entries in the source; they are usually repeats but may differ in a detail not shown here. Identical values can stand only once. Like-named read-outs stand apart in the source and are kept apart here.

Experiments:
[1] = tested on: C57BL/6 Diet Induced Obese (DIO) mice; test: Oral (P.O.) administration study in DIO mice: in vivo activity, body weights; set-up: species or system mouse; conditions: for change in vivo at 2 mg/kg: Mus musculus, po, read-out: Body weight, %-Diff; for Individual Body Weight, PRED 11 / Individual Body Weight, PRED 12 / Individual Body Weight, PRED 13 / Individual Body Weight, PRED 14: individual male DIO mouse of the 2 mg/kg group; for Individual Body Weight, PRED 11: pre-dose phase day 11 (baseline); for Individual Body Weight, PRED 12: pre-dose phase day 12 (baseline); for Individual Body Weight, PRED 13: pre-dose phase day 13 (baseline); for Individual Body Weight, PRED 14: pre-dose phase day 14 (baseline); for Individual Body Weight, DSNG 1 / Individual Body Weight, DSNG 2: individual male DIO mouse; for Individual Body Weight, DSNG 1: dosing phase day 1; for Individual Body Weight, DSNG 2: dosing phase day 2; for Individual Body Weight: individual male animals
Description: The purpose of this study was to assess test articles in the Diet Induced Obese (DIO) mouse.
Male C57BL/6 Diet Induced Obese (DIO) mice were received from Taconic. Animals were acclimated to housing conditions for at least 1 week prior to vehicle acclimation dosing. Animals were acclimated to oral gavage dosing with vehicle once daily for Days 11 through 14 of the predose phase.
At initiation of dosing, animals were 21 to 22 weeks old, and their body weights ranged from 29.8 to 40.1 g.
Dose formulations were administered by oral gavage once daily for 10 days at a dose volume of 2 mL/kg. Doses were based on the most recently recorded scheduled body weight.
Body weights were recorded daily on Days 11 through 14 of the predose phase. Body weights were collected for all animals daily during the dosing phase prior to dosing.
Descriptive statistics (n, mean, standard error of the mean, standard deviation) were completed. Additionally, one-way analysis of variance followed by Dunnett's post-hoc test were performed on body weight (cumulative body weight change), glucose (glucose percent change), and food consumption (cumulative food consumption). Area under the curve (for body weight, cumulative body weight change, daily body weight change, and food consumption) was computed for treatment groups. An appropriate comparison test, such as one-way analysis of variance and Dunnett's, was performed on the group means for the area under the curve computations. Any additional statistical analysis and interpretation of the results were the responsibility of the sponsor.

[2] = tested on: C57BL/6 Diet Induced Obese (DIO) mice; test: Oral (P.O.) administration study in DIO mice: animal fate (mortality) and clinical observations; conditions: 2 mg/kg
Experimental: Male C57BL/6 DIO mice were assigned to 12 groups, and doses of 2 mg/kg Celastrol (ERX1000-4), ERX1006, ERX1007, ERX1037, ERX1060, ERX1077, ERX1107, ERX1149, ERX1168, ERX1177, and Pristimerin were administered to Groups 2 through 12, respectively. Animals were dosed via oral gavage once daily for 10 days at a volume of 2 mL/kg. The vehicle control article was 1% methyl cellulose (400 cps) in citric acid and phosphate buffer.
Parameters assessed included mortality, clinical observations, body weights and food consumption and blood glucose evaluations.
All animals were anesthetized via carbon dioxide, sacrificed, and discarded without further evaluation on Day 11.

[3] = physchem; conditions: pH 7.4, aqueous buffer, kinetic from dmso stock; for solubility at 1 h: PBS (pH 7.4)
Experimental: • Test concentration: 100 μM (1% of DMSO) • Test systems: PBS (pH 7.4) • Incubation condition: shaken (1000 rpm) for 1 h at room temperature • Sample size: Duplicates (n=2) • Bioanalytical method: LC-MS/MS

[4] = DIO mice, male, 2 mg/kg, phase DSNG, Day 7
[5] = DIO mice, male, 2 mg/kg, phase DSNG, Day 8
[6] = DIO mice, male, 2 mg/kg, phase DSNG, Day 9
[7] = DIO mice, male, 2 mg/kg, phase DSNG, Day 10
[8] = DIO mice, male, 2 mg/kg, phase DSNG, Day 11
[9] = Day 1, DSNG phase, 2 mg/kg, male, N=5
[10] = Day 2, DSNG phase, 2 mg/kg, male, N=5
[11] = Day 3, DSNG phase, 2 mg/kg, male, N=5
[12] = Day 4, DSNG phase, 2 mg/kg, male, N=5
[13] = Day 5, DSNG phase, 2 mg/kg, male, N=5
[14] = Day 6, DSNG phase, 2 mg/kg, male, N=5
[15] = 24 h, Day 1, DSNG phase, 2 mg/kg, male, difference of group mean
[16] = 48 h, Day 2, DSNG phase, 2 mg/kg, male, difference of group mean
[17] = 72 h, Day 3, DSNG phase, 2 mg/kg, male, difference of group mean
[18] = 96 h, Day 4, DSNG phase, 2 mg/kg, male, difference of group mean
[19] = 120 h, Day 5, DSNG phase, 2 mg/kg, male, difference of group mean
[20] = 144 h, Day 6, DSNG phase, 2 mg/kg, male, difference of group mean
[21] = 168 h, DIO mice, male, 2 mg/kg, phase DSNG, Day 7, difference of group mean from vehicle group 1
[22] = 192 h, DIO mice, male, 2 mg/kg, phase DSNG, Day 8, difference of group mean from vehicle group 1
[23] = 216 h, DIO mice, male, 2 mg/kg, phase DSNG, Day 9, difference of group mean from vehicle group 1
[24] = 240 h, DIO mice, male, 2 mg/kg, phase DSNG, Day 10, difference of group mean from vehicle group 1
[25] = 264 h, DIO mice, male, 2 mg/kg, phase DSNG, Day 11, difference of group mean from vehicle group 1
[26] = Solubility (μM) Mean, Table 6-B, test concentration 100 μM (1% of DMSO), shaken (1000 rpm) 1 h at room temperature, n = 2

CC(=O)OC1=C(C)C2=CC=C3[C@@](C)(CC[C@@]4(C)[C@@H]5C[C@](C)(C(=O)O)CC[C@]5(C)CC[C@]34C)C2=CC1=O [ERX1007]
Body weight %-Diff ([1]; 2 mg/kg oral gavage once daily, dosing phase Day 1): 1%
Body weight, Mean ([1]; 2 mg/kg oral gavage once daily, dosing phase Day 1, N 5): 34.5 g
Body weight %-Diff ([1]; 2 mg/kg oral gavage once daily, dosing phase Day 2): −1%
Body weight, Mean ([1]; 2 mg/kg oral gavage once daily, dosing phase Day 2, N 5): 34.1 g
Body weight %-Diff ([1]; 2 mg/kg oral gavage once daily, dosing phase Day 3): −2%
Body weight, Mean ([1]; 2 mg/kg oral gavage once daily, dosing phase Day 3, N 5): 33.3 g
Body weight %-Diff ([1]; 2 mg/kg oral gavage once daily, dosing phase Day 4): 0%
Body weight, Mean ([1]; 2 mg/kg oral gavage once daily, dosing phase Day 4, N 5): 33.3 g
Body weight %-Diff ([1]; 2 mg/kg oral gavage once daily, dosing phase Day 5): −2%
Body weight, Mean ([1]; 2 mg/kg oral gavage once daily, dosing phase Day 5, N 5): 33.1 g
Body weight %-Diff ([1]; 2 mg/kg oral gavage once daily, dosing phase Day 6): −3%
Body weight, Mean ([1]; 2 mg/kg oral gavage once daily, dosing phase Day 6, N 5): 32.4 g
Body weight, Mean ([1]; Day 7, DSNG phase, 2 mg/kg, male, N=5): 32.4 g
Body weight, Mean ([1]; Day 8, DSNG phase, 2 mg/kg, male, N=5): 32.7 g
Body weight, Mean ([1]; Day 9, DSNG phase, 2 mg/kg, male, N=5): 32.3 g
Body weight, Mean ([1]; Day 10, DSNG phase, 2 mg/kg, male, N=5): 32.1 g
Body weight, Mean ([1]; Day 11, DSNG phase, 2 mg/kg, male, N=5): 32.3 g
change in vivo at 2 mg/kg ([1]; 168 h, Day 7, DSNG phase, 2 mg/kg, male, difference of group mean): -3%
change in vivo at 2 mg/kg ([1]; 192 h, Day 8, DSNG phase, 2 mg/kg, male, difference of group mean): -3%
change in vivo at 2 mg/kg ([1]; 216 h, Day 9, DSNG phase, 2 mg/kg, male, difference of group mean): -3%
change in vivo at 2 mg/kg ([1]; 240 h, Day 10, DSNG phase, 2 mg/kg, male, difference of group mean): -4%
change in vivo at 2 mg/kg ([1]; 264 h, Day 11, DSNG phase, 2 mg/kg, male, difference of group mean): -5%
Individual Body Weight, PRED 11 [1]: 36.8 g and 39.8 g and 35.7 g and 32.5 g and 37.6 g
Individual Body Weight, PRED 12 [1]: 35.2 g and 38.9 g and 35.7 g and 31.7 g and 36.9 g
Individual Body Weight, PRED 13 [1]: 34.1 g and 38.7 g and 35.3 g and 32.3 g and 36.5 g
Individual Body Weight, PRED 14 [1]: 34.2 g and 38.6 g and 35.2 g and 32.7 g and 37.3 g
Individual Body Weight, DSNG 1 ([1]; 2 mg/kg, 2 mg/kg): 33.8 g and 36.3 g and 34.7 g and 31.4 g and 36.2 g
Individual Body Weight, DSNG 2 ([1]; 2 mg/kg, 2 mg/kg): 33.2 g and 36.4 g and 34.2 g and 30.3 g and 36.2 g
Individual Animal Fate: Fate Status ([2]; individual male animals, phase of fate Dosing, phase week 2, phase day 11): Scheduled Sacrifice
solubility ([3]; Solubility (μM)): 48.8 µM (≈ 24 µg/mL)
solubility ([3]; Solubility (μM) Mean): 48.8 µM (≈ 24 µg/mL)

CC1=C(O)C(=O)C=C2C1=CC=C1[C@@]2(C)CC[C@@]2(C)[C@@H]3C[C@](C)(CN(C)C)CC[C@]3(C)CC[C@]12C [ERX1060]
Body weight, Mean [1, 4]: 33.8 g
Body weight, Mean [1, 5]: 33.3 g
Body weight, Mean [1, 6]: 33.1 g
Body weight, Mean [1, 7]: 33.5 g
Body weight, Mean [1, 8]: 34.4 g
Body weight, Mean [1, 9]: 34.6 g
Body weight, Mean [1, 10]: 34.1 g
Body weight, Mean [1, 11]: 34.4 g
Body weight, Mean [1, 12]: 34.1 g
Body weight, Mean [1, 13]: 34.2 g
Body weight, Mean [1, 14]: 34.4 g
change in vivo at 2 mg/kg [1, 15]: 1%
change in vivo at 2 mg/kg [1, 16]: -1%
change in vivo at 2 mg/kg [1, 17]: 1%
change in vivo at 2 mg/kg [1, 18]: 2%
change in vivo at 2 mg/kg [1, 19]: 1%
change in vivo at 2 mg/kg [1, 20]: 3%
change in vivo at 2 mg/kg [1, 21]: 1%
change in vivo at 2 mg/kg [1, 22]: -1%
change in vivo at 2 mg/kg [1, 23]: 0%
change in vivo at 2 mg/kg [1, 24]: 0%
change in vivo at 2 mg/kg [1, 25]: 1%
Individual Body Weight, PRED 11 [1]: 36.2 g and 38.2 g and 35.9 g and 40.9 g and 38.9 g
Individual Body Weight, PRED 12 [1]: 34.5 g and 36.6 g and 34.9 g and 41.2 g and 39.0 g
Individual Body Weight, PRED 13 [1]: 33.2 g and 34.7 g and 33.5 g and 39.8 g and 37.1 g
Individual Body Weight, PRED 14 [1]: 33.7 g and 35.1 g and 32.7 g and 40.6 g and 37.4 g
Individual Body Weight, DSNG 1 ([1]; 2 mg/kg, 2 mg/kg): 32.9 g and 34.3 g and 31.3 g and 38.7 g and 35.6 g
Individual Body Weight, DSNG 2 ([1]; 2 mg/kg, 2 mg/kg): 33.2 g and 34.1 g and 29.8 g and 38.2 g and 35.2 g
Individual Animal Fate: Fate Status ([2]; mouse, in vivo): Scheduled Sacrifice
solubility at 1 h [3, 26]: 1.11 µM (≈ 0.515 µg/mL)
solubility at 1 h ([3]; Solubility (μM), Table 6-D): 1.11 µM (≈ 0.515 µg/mL)

CC1=C(O)C(=O)C=C2C1=CC=C1[C@@]2(C)CC[C@@]2(C)[C@@H]3C[C@](C)(N)CC[C@]3(C)CC[C@]12C [ERX1077]
Individual Body Weight ([1]; 2 mg/kg, Phase Day DSNG 1): 31.5 g and 32.8 g and 34.5 g and 38.3 g and 34.9 g
Individual Body Weight ([1]; 2 mg/kg, Phase Day DSNG 2): 31.2 g and 32.5 g and 34.1 g and 38.4 g and 34.4 g
Individual Body Weight ([1]; 2 mg/kg, Phase Day PRED 11 (pre-dose baseline)): 32.6 g and 34.8 g and 36.1 g and 40.2 g and 38.0 g
Individual Body Weight ([1]; 2 mg/kg, Phase Day PRED 12 (pre-dose baseline)): 33.2 g and 34.0 g and 35.8 g and 40.4 g and 37.0 g
Individual Body Weight ([1]; 2 mg/kg, Phase Day PRED 13 (pre-dose baseline)): 31.6 g and 33.1 g and 35.6 g and 39.7 g and 36.9 g
Individual Body Weight ([1]; 2 mg/kg, Phase Day PRED 14 (pre-dose baseline)): 32.7 g and 33.6 g and 35.7 g and 40.6 g and 36.6 g
Body weight, Mean [1, 4]: 33.3 g
Body weight, Mean [1, 5]: 33.7 g
Body weight, Mean [1, 6]: 33.5 g
Body weight, Mean [1, 7]: 33.8 g
Body weight, Mean [1, 8]: 33.9 g
Body weight, Mean [1, 9]: 34.4 g
Body weight, Mean [1, 10]: 34.1 g
Body weight, Mean [1, 11]: 34.0 g
Body weight, Mean [1, 12]: 33.7 g
Body weight, Mean [1, 13]: 33.7 g
Body weight, Mean [1, 14]: 34.0 g
change in vivo at 2 mg/kg [1, 15]: 0%
change in vivo at 2 mg/kg [1, 16]: -1%
change in vivo at 2 mg/kg [1, 17]: 0%
change in vivo at 2 mg/kg [1, 18]: 1%
change in vivo at 2 mg/kg [1, 19]: 0%
change in vivo at 2 mg/kg [1, 20]: 1%
change in vivo at 2 mg/kg [1, 21]: -1%
change in vivo at 2 mg/kg [1, 22]: 0%
change in vivo at 2 mg/kg [1, 23]: 1%
change in vivo at 2 mg/kg [1, 24]: 1%
change in vivo at 2 mg/kg [1, 25]: -1%
Individual Animal Fate: Fate Status ([2]; mouse, in vivo): Scheduled Sacrifice
solubility at 1 h [3, 26]: 16.7 µM (≈ 7.04 µg/mL)
solubility at 1 h ([3]; Solubility (μM), Table 6-D): 16.7 µM (≈ 7.04 µg/mL)
